Our source for the TGI values is PubChem BioAssay (NCI).

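Step 1: Grow cells in 96-well plates. Step 2: Expose to compound for 48 hours at 5 concentrations. Step 3: Interpolate endpoints linearly; if unreached, use highest concentration. The concentration for full growth arrest is given as TGI.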

What all share (assay): growth of human tumour cells (NCI), 48 h
Test [1] has as its system KM12 colon.
Test [2] deals with SF-268 CNS.
In test [3] the test system is SF-539 CNS.
In test [4] the test system is MDA-MB-231 breast.
The subject of test [5] is A549 NSCLC.
The subject of test [6] is SW-620 colon.
Test [7] relates to UACC-62 melanoma.
The test system of test [8] is OVCAR-8 ovarian.
For test [9], the system named is T-47D breast.
In test [10] the test system is SF-295 CNS.
Test [11] has as its system MDA-N.
The subject of test [12] is OVCAR-4 ovarian.
Test [13] concerns EKVX NSCLC.
Test [14] has as its system SNB-75 CNS.
The subject of test [15] is OVCAR-5 ovarian.
The subject of test [16] is SNB-19 CNS.
Test [17] concerns NCI-H522 lung.
For test [18], the system named is RPMI-8226 leukemia.

In the case of `CC1=C(N2CC2)C(=O)c2nc3n(c2C1=O)CCC3OC(=O)CCl` (stereo unspecified), the TGI is 0.0977 µM in test [1]; 0.202 µM in test [2]; 0.152 µM in test [3]; above 100 µM in test [4]; 0.169 µM in [5]; 0.191 µM in test [6]. Further, the TGI turned out to be 0.0696 µM in test [7]; 0.165 µM in test [8]; 3.88 µM in test [9]; 0.204 µM in [10]; 0.056 µM in test [11]; 0.218 µM in test [12]. The TGI in [13] was 0.551 µM; in test [14] it was 0.05 µM; in [15], 0.263 µM; in test [16], 0.684 µM; in test [17], 0.0617 µM; in test [18] it was 1.7 µM.

`O=C(c1ccccc1)c1ccc(COc2ccc(C(c3c(O)c4ccccc4oc3=O)c3c(O)c4ccccc4oc3=O)cc2)cc1`: the TGI in test [1] is 29.6 µM; in test [2], above 100 µM; in [3], 46.4 µM; in [4], above 100 µM; in [5] it was 65.2 µM; in test [6], 80.4 µM. The TGI amounted to 30 µM in test [7]; 37.2 µM in test [8]; 57.6 µM in [9]; 44.1 µM in [10]; 62 µM in test [11]; 73 µM in [12]. In addition, the TGI was determined as 40 µM in test [13]; 32.7 µM in test [14]; 38.9 µM in test [15]; 58.6 µM in test [16]; 38.1 µM in test [17]; 38.4 µM in [18].
